Measurements: the supplement of paper PMC10307832

Assays:
Experiment in all cases: relative viability (nuclei count vs DMSO), 5 days (fraction); higher = more cells survive
Crenolanib + OSI-027 = compound: CC1(COc2ccc3c(c2)ncn3-c2ccc3cccc(N4CCC(N)CC4)c3n2)COC1 [Crenolanib] + COc1cccc2cc(-c3nc([C@H]4CC[C@H](C(=O)O)CC4)n4ncnc(N)c34)[nH]c12 [OSI-027] (partner 0.5 µM)
Summary of the method: (§1)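 Cells from lung cancer lines were seeded into 1536-well plates and, one day later, dosed by pin tool. Treatments were either a single drug or a fixed dose of an anchor drug with five library-drug doses (not always all listed) in √10 steps. After 5 days, nuclei were stained in a one-step fixation (final 0.05% Triton X-100, 1% formaldehyde, 1 ug/ml Hoechst) and counted on 4× images, and relative viability is the treated-to-vehicle nuclei ratio, as the median of duplicate plates.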

Crenolanib + Crizotinib = compound: CC1(COc2ccc3c(c2)ncn3-c2ccc3cccc(N4CCC(N)CC4)c3n2)COC1 [Crenolanib] + C[C@@H](Oc1cc(-c2cnn(C3CCNCC3)c2)cnc1N)c1c(Cl)ccc(F)c1Cl [Crizotinib] (partner 1 µM)
Summary of the method: as §1

Crenolanib + Decitabine = compound: CC1(COc2ccc3c(c2)ncn3-c2ccc3cccc(N4CCC(N)CC4)c3n2)COC1 [Crenolanib] + Nc1ncn([C@H]2C[C@H](O)[C@@H](CO)O2)c(=O)n1 [Decitabine] (partner 2 µM)
Summary of the method: as §1

Tivantinib + OSI-027 = compound: O=C1NC(=O)[C@@H](c2cn3c4c(cccc24)CCC3)[C@@H]1c1c[nH]c2ccccc12 [Tivantinib] + COc1cccc2cc(-c3nc([C@H]4CC[C@H](C(=O)O)CC4)n4ncnc(N)c34)[nH]c12 [OSI-027] (partner 0.5 µM)
Summary of the method: as §1

Row | Cell Line | relative viability (Crenolanib + OSI-027; first compound 0.01 µM) | relative viability (Crenolanib + OSI-027; first compound 0.03162 µM) | relative viability (Crenolanib + OSI-027; first compound 0.1 µM) | relative viability (Crenolanib + OSI-027; first compound 0.3162 µM) | relative viability (Crenolanib + OSI-027; first compound 1 µM) | relative viability (Crenolanib + Crizotinib; first compound 0.01 µM) | relative viability (Crenolanib + Crizotinib; first compound 0.03162 µM) | relative viability (Crenolanib + Crizotinib; first compound 0.1 µM) | relative viability (Crenolanib + Crizotinib; first compound 0.3162 µM) | relative viability (Crenolanib + Crizotinib; first compound 1 µM) | relative viability (Crenolanib + Decitabine; first compound 0.01 µM) | relative viability (Crenolanib + Decitabine; first compound 0.03162 µM) | relative viability (Crenolanib + Decitabine; first compound 0.1 µM) | relative viability (Crenolanib + Decitabine; first compound 0.3162 µM) | relative viability (Crenolanib + Decitabine; first compound 1 µM) | relative viability (Tivantinib + OSI-027; first compound 0.01 µM) | relative viability (Tivantinib + OSI-027; first compound 0.03162 µM) | relative viability (Tivantinib + OSI-027; first compound 0.1 µM) | relative viability (Tivantinib + OSI-027; first compound 0.3162 µM)
1 | NCI-H1993 | 0.527 | 0.526 | 0.509 | 0.567 | 0.592 | 0.875 | 0.871 | 0.875 | 0.806 | 0.9 | 0.578 | 0.629 | 0.615 | 0.62 | 0.651 | 0.538 | 0.57 | 0.563 | 0.61
2 | CAL-12T | 0.844 | 0.634 | 0.643 | 0.712 | 0.693 | 0.66 | 0.709 | 0.704 | 0.816 | 0.787 |  |  |  |  |  | 0.791 | 0.541 | 0.634 | 0.256
3 | NCI-H1623 | 0.434 | 0.405 | 0.418 | 0.437 | 0.387 |  |  |  |  |  |  |  |  |  |  | 0.434 | 0.442 | 0.487 | 
4 | HCC-78 | 0.433 | 0.32 |  | 0.345 | 0.338 | 0.371 | 0.367 | 0.393 | 0.34 | 0.31 | 0.673 | 0.634 | 0.734 | 0.838 | 0.652 | 0.36 | 0.37 | 0.367 | 0.32
5 | EKVX | 0.737 | 0.78 | 0.69 | 0.683 | 0.737 | 1.06 | 0.756 | 0.899 | 1.06 | 1 | 0.377 | 0.318 | 0.392 | 0.319 | 0.38 | 0.711 | 0.663 | 0.679 | 
6 | NCI-H1666 | 0.85 | 0.933 | 0.834 | 0.906 | 0.85 | 1.05 | 0.917 | 1.01 | 0.885 | 1 | 0.757 | 0.576 | 0.663 | 0.692 | 0.806 | 0.83 | 0.743 | 0.876 | 0.687
7 | NCI-H1944 | 0.554 | 0.408 | 0.416 | 0.397 | 0.346 | 1.05 | 1.19 | 1.03 | 1.21 | 1.07 | 0.474 | 0.441 | 0.423 | 0.468 | 0.458 | 0.372 | 0.349 | 0.393 | 0.328
8 | NCI-H1734 | 0.706 | 0.563 | 0.561 | 0.822 | 0.566 | 0.684 | 0.708 | 0.657 | 0.778 | 0.693 | 0.55 | 0.549 | 0.507 | 0.591 | 0.507 | 0.646 | 0.553 | 0.643 | 0.576
9 | Calu-6 |  |  |  |  |  | 0.812 | 0.814 | 0.787 | 0.854 | 0.835 |  |  |  |  |  |  |  |  | 
10 | EBC-1 |  |  |  |  |  | 0.18 | 0.198 | 0.188 | 0.134 | 0.197 |  |  |  |  |  |  |  |  | 
11 | A-427 | 0.519 | 0.54 | 0.421 | 0.48 | 0.431 | 0.854 | 0.946 | 0.804 | 0.87 | 1.02 | 0.573 |  | 0.592 | 0.553 | 0.52 | 0.556 | 0.413 | 0.487 | 0.456
12 | NCI-H2405 | 0.672 | 0.64 |  | 0.671 | 0.655 | 0.899 | 0.94 | 0.623 | 0.809 | 0.837 | 0.775 |  | 0.671 | 0.781 | 0.686 | 0.717 | 0.637 | 0.632 | 0.574
13 | NCI-H1437 | 0.902 | 0.862 | 0.936 | 0.869 | 0.855 | 1.02 | 1.04 | 1 | 1.04 | 0.897 | 0.634 | 0.551 | 0.527 | 0.562 | 0.512 | 0.911 | 0.795 | 0.811 | 0.886
14 | NCI-H358 | 0.849 | 0.777 | 0.675 | 0.744 | 0.565 | 0.701 | 0.584 | 0.592 | 0.454 | 0.661 | 0.17 | 0.194 | 0.233 | 0.21 | 0.188 | 0.839 | 0.94 | 0.634 | 0.195
15 | RERF-LC-KJ | 0.583 | 0.582 | 0.574 | 0.648 | 0.448 | 0.796 | 0.848 | 0.825 | 0.852 | 0.886 | 0.672 | 0.699 | 0.635 | 0.697 | 0.717 | 0.592 | 0.646 | 0.512 | 0.389
16 | NCI-H23 | 0.689 | 0.649 | 0.594 | 0.783 | 0.351 | 0.689 | 0.476 | 0.615 | 0.441 | 0.575 | 0.288 | 0.359 | 0.347 | 0.353 | 0.321 | 0.651 | 0.366 | 0.515 | 0.518
17 | IA-LM |  |  |  |  |  | 0.925 | 0.9 | 0.631 | 1.29 | 1.26 |  |  |  |  |  |  |  |  | 
18 | HCC-15 | 0.742 | 0.695 | 0.676 | 0.616 | 0.393 | 0.944 | 0.815 | 0.847 | 0.8 | 0.727 | 0.625 | 0.621 | 0.603 | 0.689 | 0.65 | 0.76 | 0.53 | 0.614 | 0.7
19 | PC-14 | 0.883 | 0.776 | 0.764 | 0.816 | 0.617 | 0.902 | 0.93 | 0.825 | 0.966 | 1.03 | 0.167 | 0.195 | 0.212 | 0.21 | 0.226 | 0.942 | 0.784 | 0.755 | 0.598
20 | NCI-H1792 | 0.756 | 0.82 | 0.691 | 0.723 | 0.647 | 1.05 | 0.958 | 0.933 | 1.17 | 0.943 | 0.567 | 0.555 | 0.488 | 0.569 | 0.56 | 0.777 | 0.685 | 0.595 | 0.547
